We go through seven substances from patent US11225565B2, “Purification of sugammadex” (SYNTHON B.V., priority 2018, dated 2022).

The nature of data set [1]: Osmolality of sugammadex solution in water (OSMOMAT 3000, freezing point comparison). Type of data set: physicochemical. To be noted: concentration 108 mg/ml. How it is done: Osmolality was measured using OSMOMAT 3000 (Gonotec), a solution (concentration 108 mg/ml) of sugammadex in water was used. The osmolality of the solution was obtained by comparison of freezing point of the sugammadex solution and the freezing point of water.

Data set [2] can be described thus: Sodium content of sugammadex samples by potentiometric titration with HClO4. Type of data set: physicochemical. The settings on record: sugammadex solution in glacial acetic acid, 3 mg/ml, titrated with 0.1 M HClO4. How it is done: The sodium content was obtained by titration of sugammadex solution in glacial acetic acid (concentration 3 mg/ml) using 0.1 M solution of HClO4 using Titrator 794 DMS Titrino, Metrohm. The endpoint (VEQ) was determined potentiometrically.

In data set [1], “6A,6B,6C,6D,6E,6F,6G,6H-Octakis-S-(2-carboxyethyl)-6A,6B,6C,6D,6E,6F,6G-octasulfanyl-gamma-cyclodextrin octasodium salt [Example 5]” yielded an Osmolality of 335 mOsmol/kg. Further, the “Sodium content % (wt/wt) based on amount of sugammadex” value (from here on “Sodium content % (wt/wt) based”) in data set [2] was 8.5 % (wt/wt).

For the substance “6A,6B,6C,6D,6E,6F,6G,6H-Octakis-S-(2-carboxyethyl)-6A,6B,6C,6D,6E,6F,6G-octasulfanyl-gamma-cyclodextrin octasodium salt [Example 4 of WO2017144734 application, reference compound]”, the Osmolality in data set [1] came to 986 mOsmol/kg. Further, in data set [2], the “Sodium content % (wt/wt) based” value is 11.14 % (wt/wt).

In turn, “6A,6B,6C,6D,6E,6F,6G,6H-Octakis-S-(2-carboxyethyl)-6A,6B,6C,6D,6E,6F,6G-octasulfanyl-gamma-cyclodextrin octasodium salt [Example 4]” returned an Osmolality in data set [1] of 346 mOsmol/kg. In data set [2], the “Sodium content % (wt/wt) based” value was 8.5 % (wt/wt).

“6A,6B,6C,6D,6E,6F,6G,6H-Octakis-S-(2-carboxyethyl)-6A,6B,6C,6D,6E,6F,6G-octasulfanyl-gamma-cyclodextrin octasodium salt [Example 2]” registered an Osmolality in data set [1] of 320 mOsmol/kg. Besides, the “Sodium content % (wt/wt) based” value in data set [2] is recorded as 8.5 % (wt/wt).

In data set [1], “6A,6B,6C,6D,6E,6F,6G,6H-Octakis-S-(2-carboxyethyl)-6A,6B,6C,6D,6E,6F,6G-octasulfanyl-gamma-cyclodextrin octasodium salt [Example 3]” yielded an Osmolality of 349 mOsmol/kg. In addition, in data set [2], the “Sodium content % (wt/wt) based” value was 8.5 % (wt/wt).

For “6A,6B,6C,6D,6E,6F,6G,6H-Octakis-S-(2-carboxyethyl)-6A,6B,6C,6D,6E,6F,6G-octasulfanyl-gamma-cyclodextrin octasodium salt [Example 1]”, in data set [1], the Osmolality is 322 mOsmol/kg. For the same substance, in data set [2], the “Sodium content % (wt/wt) based” value was 8.5 % (wt/wt).

For “6A,6B,6C,6D,6E,6F,6G,6H-Octakis-S-(2-carboxyethyl)-6A,6B,6C,6D,6E,6F,6G-octasulfanyl-gamma-cyclodextrin octasodium salt [Example 6]”, in data set [1], the Osmolality is given as 348 mOsmol/kg. Moreover, the “Sodium content % (wt/wt) based” value in data set [2] is 8.5 % (wt/wt).
